Assays:
[1] = test system: U87MG human glioblastoma; assay: MTT cytotoxicity assay, U87MG; assay type: cell-based; details: 72 hours, read-out: TCS50
Text: (§1) One of the parameters used as the basis for colorimetric assays is the metabolic activity of viable cells. For example, a microtiter assay which uses the tetrazolium salt MTT is now widely used to quantitate cell proliferation and cytotoxicity [Hajdúch M, Mihál V, Minarík J, Fáber E, Safárová M, Weigl E, Antálek P.: Cytotechnology, 1996, 19, 243–245]. For instance, this assay is used in drug screening programs and in chemosensitivity testing. Because tetrazolium salts are cleaved only by metabolically active cells, these assays exclusively detect viable cells. In the case of the MTT assay, yellow soluble tetrazolium salt is reduced to a coloured water-insoluble formazan salt. After it is solubilized, the formazan formed can easily and rapidly be quantified in a conventional ELISA plate reader at 570 nm (maximum absorbancy). The quantity of reduced formazan corresponds to the number of vital cells in the culture. […]
(§2) The cell suspensions that were prepared and diluted according to the particular cell type and the expected target cell density (2,500–30,000 cells per well based on cell growth characteristics) were added by pipette (80 μl) into 96/well microtiter plates. […] Usually, test compounds were evaluated at six 4-fold dilutions. […] The tumour cell survival (TCS) was calculated using the following equitation: TCS=(ODdrug exposed well/mean ODcontrol wells)×100%. […]

[2] = test system: MCF-7 human breast cancer, estrogen dependent, p53+/+, Rb+/+; assay: MTT cytotoxicity assay, MCF-7; assay type: cell-based; details: 72 hours, read-out: TCS50
Text: as §1, §2

[3] = test system: U2OS human osteosarcoma, p53+/−, Rb+/−; assay: MTT cytotoxicity assay, U2OS; assay type: cell-based; details: 72 hours, read-out: TCS50
Text: as §1, §2

[4] = test system: Saos2 human, p53−/−, Rb−/−; assay: MTT cytotoxicity assay, Saos2; assay type: cell-based; details: 72 hours, read-out: TCS50
Text: as §1, §2

[5] = test system: BT549 human breast cancer, p53mut/mut; assay: MTT cytotoxicity assay, BT549; assay type: cell-based; details: 72 hours, read-out: TCS50
Text: as §1, §2

[6] = test system: Caco-2 human colon cancer; assay: MTT cytotoxicity assay, Caco-2; assay type: cell-based; details: 72 hours, read-out: TCS50
Text: as §1, §2

[7] = test system: MEL-3 human melanoma; assay: MTT cytotoxicity assay, MEL-3; assay type: cell-based; details: 72 hours, read-out: TCS50
Text: as §1, §2

[8] = test system: CEM-VCR 1/F3 human T-lymphoblastic leukemia, vincristin resistant; assay: MTT cytotoxicity assay, CEM-VCR 1/F3; assay type: cell-based; details: 72 hours, read-out: TCS50
Text: as §1, §2

[9] = test system: CEM-VCR bulk human T-lymphoblastic leukemia, vincristin resistant; assay: MTT cytotoxicity assay, CEM-VCR bulk; assay type: cell-based; details: 72 hours, read-out: TCS50
Text: as §1, §2

[10] = test system: H3 histone (Lys9); assay: Histone acetylation, Western blot in CEM cells; assay type: cell-based, human
Procedure: CEM cells were cultured in Dulbeco's modified essential medium with 4.5 g dextrose/l, 10% of foetal calf serum, 2 mM glutamine, 100 U/ml penicillin and 100 μg/ml streptomycin with/without the indicated concentrations of HDAC inhibitor TSA or I.3. At selected time points, cells were harvested, washed in ice cold Hank's balanced salt solution and solubilized on ice using SDS-PAGE sample buffer containing protease and phosphatase inhibitors (10 μg/ml of leupeptin, 10 μg/ml of aprotinin, 10 μg/ml of soybean trypsin inhibitor, 100 μmol of benzamide, 1 mM of sodium vanadate, 1 mM of NaF, 1 mM of phenylphosphate) and boiled immediately.
Total cellular proteins (100 μg/well) were separated on SDS-PAGE electrophoresis, blotted on polyvinyldifluoride membranes and acetylated histone was detected using a anti-acetyl(Lys9)-histone H3 rabbit polyclonal antibody (Cell Signalling Technology, Beverly, Mass.; Cat# 9671L) and visualized by chemilumniuscence (ECL-Western Blotting System, Amersham). Details of the Western blot technique are described in Ausubel, F. M., Brent, R, Kingston, R. E., Moore, D. D., Seidman, J. G., Smith, J. A., Struhl, K. (Eds): Short Protocols in Molecular. Biology, 2nd edition, John Wiley & Sons, New York, Chichester, Brisbane, Toronto, Singapore, 1992, page 10–33–10–35.

CC(=O)OC[C@@]1(C(=O)O)CC[C@]2(C)[C@H](CC[C@@H]3[C@@]4(C)CC[C@H](OC(C)=O)C(C)(C)[C@@H]4CC[C@]32C)C1=O [I.3, 3β,28-diacetoxy-18-oxo-19,20,21,29,30-pentanorlupan-22-oic acid]
IC50 [1]: 5100 nM | IC50 [2]: 2300 nM | IC50 [3]: 1500 nM | IC50 [4]: 1800 nM | IC50 [5]: 2000 nM | IC50 [6]: 3000 nM | IC50 [7]: 1300 nM | IC50 [8]: 3300 nM | IC50 [9]: 2500 nM | time points showing histone acetylation ([10]; 2 μM (IC50)): 45 to 120 min | time to appearance of acetylated histone ([10]; 20 μM (10×IC50)): 30 min | acetylation of H3 histone in Lys9 position ([10]; Western blot (FIG. 5)): rapidly acetylated

Reference: US7041701B2, “Triterpenoid derivatives” (Univerzita Palackeho V Olomouci, priority 2000, dated 2006)
